Like-named read-outs stand apart in the source and are kept apart here.
Experiment: Pharmacokinetic study GW01-0706 under maximal use conditions (serum imiquimod)
Assay type: in vivo, human
Experimental: An open label, single center, non-randomized pharmacokinetic (PK) study in adult subjects diagnosed with actinic keratosis (“AK”) is conducted. […] The study is conducted under maximal use conditions (dose, duration, disease severity, and application areas) in a population that had at least 10 AK lesions in the application area. The application area is the entire face (exclusive of nares, vermilion, periocular areas and ears) and/or the entire balding scalp; areas estimated as approximately 200 cm^2. If the area of the entire balding scalp is less than 200 cm^2, the forehead area is included in order for the entire treatment area to be approximately 200 cm^2.
Subjects stay at the study center overnight at treatment initiation (Day 1, 1st dose), and end of treatment (Day 21, last dose) visits for collection of a 24-hour serum PK profile. […] Single serum samples for PK analyses of trough concentrations are obtained at Day 7 and Day 14 (in the morning prior to dosing).
Adverse events, study medication accountability, and dosing compliance are reviewed at each visit. Routine clinical laboratory assessments (serum chemistry, hematology and urinalysis) are performed at Screening, Day 1 (predose), and the end of study visits.
Trough serum concentrations are obtained on Days 7, 14, 21, and 22. The trough concentrations on Days 7 and 14 are obtained during outpatient treatment while the trough concentrations on Days 21 and 22 are obtained while the subjects are dosed in the clinical research facility.

[1] = Steady-State (Day 21), 3.75% imiquimod cream 2 packets daily

## CC(C)Cn1cnc2c(N)nc3ccccc3c21 [imiquimod, 1-isobutyl-1H-imidazo[4,5-c]-quinolin-4-amine]
Day 21/14 comparison (Reference = Day 14), subjects with paired, non-zero data, 3.75% imiquimod cream 2 packets daily
  Imiquimod trough concentration, Geometric LS Mean Reference: 0.1344 ng/mL
Day 21/14 comparison (Test = Day 21), subjects with paired, non-zero data, 3.75% imiquimod cream 2 packets daily
  Imiquimod trough concentration, Geometric LS Mean Test: 0.1791 ng/mL
[1]
  λz, Geometric Mean: 0.027 h⁻¹
  λz, Mean: 0.029 h⁻¹
  λz, Median: 0.0271 h⁻¹
human, topical
  concentration at 7 day (trough): 0.128 ng/mL
  concentration at 14 day (trough): 0.139 ng/mL
  concentration at 21 day (trough): 0.179 ng/mL
  concentration at 22 day (trough): 0.167 ng/mL
human, topical, Steady-State (Day 21), 3.75% imiquimod cream 2 packets daily, read-out: AUC0-24, Geometric Mean
  AUC(0-t): 5.03 ng·h/mL
human, topical, Steady-State (Day 21), 3.75% imiquimod cream 2 packets daily, read-out: AUC0-24, Mean
  AUC(0-t): 5.97 ng·h/mL
human, topical, Steady-State (Day 21), 3.75% imiquimod cream 2 packets daily, read-out: AUC0-24, Median
  AUC(0-t): 7.02 ng·h/mL
human, topical, Steady-State (Day 21), 3.75% imiquimod cream 2 packets daily, read-out: Cmax, Geometric Mean
  Cmax: 0.274 ng/mL
human, topical, Steady-State (Day 21), 3.75% imiquimod cream 2 packets daily, read-out: Cmax, Mean
  Cmax: 0.323 ng/mL
human, topical, Steady-State (Day 21), 3.75% imiquimod cream 2 packets daily, read-out: Cmax, Median
  Cmax: 0.35 ng/mL

Reference: patent publication US20110319811A1 (priority 2010, published 2011)
